From patent publication US6054429A (priority 1996, dated 2000)
Bridge positions count the residues as written; N and C are the ends. Square brackets hold non-standard residues; d marks the D form. Peptide text beside a SMILES is read from it. Hyp = O=C(O)[C@@H]1C[C@@H](O)CN1

Biological target: calcium channels in N1E115 mouse neuroblastoma cells (Mus musculus, UniProt O55017)
Type: cell-based

Chain of calcium channels in N1E115 mouse neuroblastoma cells (O55017 whole entry): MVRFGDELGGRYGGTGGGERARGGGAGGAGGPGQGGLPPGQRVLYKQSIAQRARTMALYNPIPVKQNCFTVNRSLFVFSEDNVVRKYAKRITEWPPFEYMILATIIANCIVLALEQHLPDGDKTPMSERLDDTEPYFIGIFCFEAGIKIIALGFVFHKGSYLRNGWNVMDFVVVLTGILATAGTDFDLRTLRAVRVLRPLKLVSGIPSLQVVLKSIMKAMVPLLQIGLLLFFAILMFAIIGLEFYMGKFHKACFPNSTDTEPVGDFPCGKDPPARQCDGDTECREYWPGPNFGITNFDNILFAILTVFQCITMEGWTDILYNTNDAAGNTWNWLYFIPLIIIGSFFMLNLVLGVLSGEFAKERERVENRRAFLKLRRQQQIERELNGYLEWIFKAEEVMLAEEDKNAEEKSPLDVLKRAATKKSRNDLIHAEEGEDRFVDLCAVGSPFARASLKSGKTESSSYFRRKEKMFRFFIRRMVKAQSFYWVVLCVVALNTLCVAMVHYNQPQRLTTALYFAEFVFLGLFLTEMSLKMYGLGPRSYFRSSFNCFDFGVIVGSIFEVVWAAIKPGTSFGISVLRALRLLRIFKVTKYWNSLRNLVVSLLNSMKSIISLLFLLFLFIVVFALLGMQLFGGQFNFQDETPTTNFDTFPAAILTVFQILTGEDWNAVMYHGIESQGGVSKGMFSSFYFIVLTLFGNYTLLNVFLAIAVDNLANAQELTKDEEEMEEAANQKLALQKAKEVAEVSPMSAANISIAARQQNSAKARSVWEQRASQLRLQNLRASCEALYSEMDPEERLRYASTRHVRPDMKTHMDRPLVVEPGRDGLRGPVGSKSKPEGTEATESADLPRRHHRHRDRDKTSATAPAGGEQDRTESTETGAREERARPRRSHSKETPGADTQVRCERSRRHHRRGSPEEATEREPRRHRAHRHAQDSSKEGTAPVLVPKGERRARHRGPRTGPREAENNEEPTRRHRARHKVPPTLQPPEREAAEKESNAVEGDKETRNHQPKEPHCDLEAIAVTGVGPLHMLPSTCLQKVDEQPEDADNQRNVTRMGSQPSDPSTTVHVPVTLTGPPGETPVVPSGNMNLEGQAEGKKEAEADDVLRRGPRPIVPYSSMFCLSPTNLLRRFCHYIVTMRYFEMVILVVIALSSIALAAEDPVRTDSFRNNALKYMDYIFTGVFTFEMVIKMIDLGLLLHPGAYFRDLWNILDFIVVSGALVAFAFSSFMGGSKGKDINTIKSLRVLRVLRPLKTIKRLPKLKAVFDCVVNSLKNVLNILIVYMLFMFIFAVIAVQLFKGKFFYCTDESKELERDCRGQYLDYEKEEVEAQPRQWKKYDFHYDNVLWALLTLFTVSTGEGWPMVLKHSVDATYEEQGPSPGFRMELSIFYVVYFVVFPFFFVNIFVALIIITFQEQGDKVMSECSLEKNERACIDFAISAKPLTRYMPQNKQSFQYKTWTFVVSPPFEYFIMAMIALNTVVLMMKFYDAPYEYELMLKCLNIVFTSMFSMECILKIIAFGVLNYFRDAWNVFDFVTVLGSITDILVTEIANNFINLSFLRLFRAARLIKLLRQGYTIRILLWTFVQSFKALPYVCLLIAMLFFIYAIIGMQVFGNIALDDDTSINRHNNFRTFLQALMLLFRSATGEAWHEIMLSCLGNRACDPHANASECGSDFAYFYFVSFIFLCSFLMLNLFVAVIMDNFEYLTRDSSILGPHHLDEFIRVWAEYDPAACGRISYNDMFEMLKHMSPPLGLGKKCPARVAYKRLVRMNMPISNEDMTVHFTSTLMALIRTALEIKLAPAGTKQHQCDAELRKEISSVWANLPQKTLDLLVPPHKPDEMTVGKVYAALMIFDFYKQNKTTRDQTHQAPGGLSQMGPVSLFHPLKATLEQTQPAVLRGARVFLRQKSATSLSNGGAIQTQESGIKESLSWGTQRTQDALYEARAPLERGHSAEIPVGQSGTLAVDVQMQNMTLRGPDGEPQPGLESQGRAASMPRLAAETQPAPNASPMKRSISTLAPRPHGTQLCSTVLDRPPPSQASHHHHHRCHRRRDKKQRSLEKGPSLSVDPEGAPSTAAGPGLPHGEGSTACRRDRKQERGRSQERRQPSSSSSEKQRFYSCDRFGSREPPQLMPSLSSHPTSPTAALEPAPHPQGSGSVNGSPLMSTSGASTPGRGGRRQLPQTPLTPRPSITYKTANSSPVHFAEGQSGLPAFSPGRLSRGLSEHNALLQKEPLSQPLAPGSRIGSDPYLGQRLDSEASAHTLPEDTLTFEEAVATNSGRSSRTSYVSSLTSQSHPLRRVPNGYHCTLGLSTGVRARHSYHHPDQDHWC
Chain of calcium channels in N1E115 mouse neuroblastoma cells (P54285 whole entry partner): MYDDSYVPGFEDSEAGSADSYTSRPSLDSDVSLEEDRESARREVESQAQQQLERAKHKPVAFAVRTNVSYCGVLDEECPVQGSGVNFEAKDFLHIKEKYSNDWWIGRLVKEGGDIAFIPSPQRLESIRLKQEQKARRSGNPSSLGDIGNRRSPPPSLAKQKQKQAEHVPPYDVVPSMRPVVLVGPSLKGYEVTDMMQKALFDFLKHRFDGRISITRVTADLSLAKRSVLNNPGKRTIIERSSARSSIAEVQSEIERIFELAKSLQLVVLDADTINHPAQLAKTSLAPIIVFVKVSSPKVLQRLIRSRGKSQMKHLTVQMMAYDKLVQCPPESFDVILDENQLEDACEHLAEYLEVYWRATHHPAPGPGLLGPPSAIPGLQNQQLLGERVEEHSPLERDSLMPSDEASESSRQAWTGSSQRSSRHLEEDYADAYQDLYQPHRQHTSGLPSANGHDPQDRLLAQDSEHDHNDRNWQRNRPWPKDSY
Chain of calcium channels in N1E115 mouse neuroblastoma cells (O08532 25-956 partner limits assumed): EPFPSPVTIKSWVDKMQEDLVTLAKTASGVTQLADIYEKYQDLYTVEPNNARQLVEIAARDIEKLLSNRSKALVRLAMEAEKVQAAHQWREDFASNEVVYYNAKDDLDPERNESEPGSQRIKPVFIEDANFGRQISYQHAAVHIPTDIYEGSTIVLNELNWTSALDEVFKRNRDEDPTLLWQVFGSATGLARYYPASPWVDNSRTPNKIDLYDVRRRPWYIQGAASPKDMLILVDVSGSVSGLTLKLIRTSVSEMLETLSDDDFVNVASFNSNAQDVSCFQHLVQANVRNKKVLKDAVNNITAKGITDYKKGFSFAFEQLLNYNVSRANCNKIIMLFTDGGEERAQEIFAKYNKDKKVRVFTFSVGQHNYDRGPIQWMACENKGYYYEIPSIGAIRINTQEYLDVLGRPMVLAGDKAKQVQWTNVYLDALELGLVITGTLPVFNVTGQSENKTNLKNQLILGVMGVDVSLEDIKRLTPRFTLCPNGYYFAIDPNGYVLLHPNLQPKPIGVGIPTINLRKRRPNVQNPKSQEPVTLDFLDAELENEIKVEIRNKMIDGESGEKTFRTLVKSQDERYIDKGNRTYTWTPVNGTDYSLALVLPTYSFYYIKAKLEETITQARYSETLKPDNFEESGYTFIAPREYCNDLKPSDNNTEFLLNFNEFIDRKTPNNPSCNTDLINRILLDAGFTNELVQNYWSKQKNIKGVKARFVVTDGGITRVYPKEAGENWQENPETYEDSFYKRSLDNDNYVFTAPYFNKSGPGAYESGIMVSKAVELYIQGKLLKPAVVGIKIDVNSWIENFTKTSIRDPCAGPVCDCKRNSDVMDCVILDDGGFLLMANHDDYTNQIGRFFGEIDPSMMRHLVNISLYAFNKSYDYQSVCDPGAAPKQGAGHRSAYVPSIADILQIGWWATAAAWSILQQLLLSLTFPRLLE
Chain of calcium channels in N1E115 mouse neuroblastoma cells (O08532 957-1103 partner limits assumed): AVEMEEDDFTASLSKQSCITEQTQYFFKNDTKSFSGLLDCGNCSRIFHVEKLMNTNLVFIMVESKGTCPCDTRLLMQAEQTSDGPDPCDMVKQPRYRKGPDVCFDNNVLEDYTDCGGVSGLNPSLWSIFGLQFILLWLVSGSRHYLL

## CC[C@H](C)[C@@H]1NC(=O)[C@H](CO)NC(=O)[C@H]([C@@H](C)O)NC(=O)[C@H](C(C)C)NC(=O)CNC(=O)[C@@H]2CSSC[C@@H]3NC(=O)[C@H](CCCNC(=N)N)NC(=O)CNC(=O)[C@H](CSSC[C@H](N)C(=O)N[C@@H](CCCNC(=N)N)C(=O)N[C@@H](CO)C(=O)N[C@@H](CO)C(=O)NCC(=O)N[C@@H](CO)C(=O)N4C[C@H](O)C[C@H]4C(=O)N2)NC(=O)[C@H](CSSC[C@@H](C(=O)N[C@H](C(N)=O)[C@@H](C)O)NC(=O)[C@H](CCCCN)NC(=O)CNC(=O)[C@H](CCCNC(=N)N)NC(=O)[C@H](Cc2ccc(O)cc2)NC3=O)NC1=O [SNX-157] (H-CRSSGS[Hyp]CGVTSICCGRCYRGKCT-NH2; disulfide 1-15, 8-18, 14-23)
  IC50 for calcium current (in words): not measurable within the range of concentrations tested
